Test results published in article PMC9791655 (Journal of Medicinal Chemistry, 2022).

Experiments:
CYP2D6 = CYP2D6 (Homo sapiens, UniProt P10635); test: CYP inhibition assay; settings: at 20 μM
human PDE9A = human PDE9A (Homo sapiens, UniProt O76083); test: PDE9A scintillation proximity assay with 3H-cGMP; format: biochemical
[1] = Radiotelemetric measurement of blood pressure in rats; settings: telemetric rats, within 24 h
CYP1A2 [2] = format: in vitro ADME; settings: human hepatocytes
CYP1A2 [3] = target: T1, CYP1A2 (Homo sapiens, UniProt P05177); settings: at 20 μM
T1 sequence (P05177 1-516): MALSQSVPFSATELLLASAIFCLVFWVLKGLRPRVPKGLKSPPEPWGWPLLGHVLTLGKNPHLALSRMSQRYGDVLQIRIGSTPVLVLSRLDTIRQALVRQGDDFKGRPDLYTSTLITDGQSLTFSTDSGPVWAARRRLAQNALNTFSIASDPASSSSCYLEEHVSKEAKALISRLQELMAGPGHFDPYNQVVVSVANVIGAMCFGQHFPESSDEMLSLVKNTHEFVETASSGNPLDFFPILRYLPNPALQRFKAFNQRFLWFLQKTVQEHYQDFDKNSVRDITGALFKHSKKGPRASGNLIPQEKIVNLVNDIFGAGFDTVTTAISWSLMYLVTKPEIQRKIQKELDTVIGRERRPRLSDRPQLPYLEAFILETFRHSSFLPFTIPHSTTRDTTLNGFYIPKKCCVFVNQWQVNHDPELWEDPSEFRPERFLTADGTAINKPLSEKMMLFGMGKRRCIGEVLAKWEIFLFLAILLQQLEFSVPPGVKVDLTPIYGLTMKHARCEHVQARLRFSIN

PDE2A = test: PDE selectivity profiling; format: biochemical, human
PDE3B = test: PDE selectivity profiling; format: biochemical, human
hERG = hERG (Homo sapiens, UniProt Q12809); test: Cardiac ion channel inhibition
Chain of hERG (Q12809 whole entry): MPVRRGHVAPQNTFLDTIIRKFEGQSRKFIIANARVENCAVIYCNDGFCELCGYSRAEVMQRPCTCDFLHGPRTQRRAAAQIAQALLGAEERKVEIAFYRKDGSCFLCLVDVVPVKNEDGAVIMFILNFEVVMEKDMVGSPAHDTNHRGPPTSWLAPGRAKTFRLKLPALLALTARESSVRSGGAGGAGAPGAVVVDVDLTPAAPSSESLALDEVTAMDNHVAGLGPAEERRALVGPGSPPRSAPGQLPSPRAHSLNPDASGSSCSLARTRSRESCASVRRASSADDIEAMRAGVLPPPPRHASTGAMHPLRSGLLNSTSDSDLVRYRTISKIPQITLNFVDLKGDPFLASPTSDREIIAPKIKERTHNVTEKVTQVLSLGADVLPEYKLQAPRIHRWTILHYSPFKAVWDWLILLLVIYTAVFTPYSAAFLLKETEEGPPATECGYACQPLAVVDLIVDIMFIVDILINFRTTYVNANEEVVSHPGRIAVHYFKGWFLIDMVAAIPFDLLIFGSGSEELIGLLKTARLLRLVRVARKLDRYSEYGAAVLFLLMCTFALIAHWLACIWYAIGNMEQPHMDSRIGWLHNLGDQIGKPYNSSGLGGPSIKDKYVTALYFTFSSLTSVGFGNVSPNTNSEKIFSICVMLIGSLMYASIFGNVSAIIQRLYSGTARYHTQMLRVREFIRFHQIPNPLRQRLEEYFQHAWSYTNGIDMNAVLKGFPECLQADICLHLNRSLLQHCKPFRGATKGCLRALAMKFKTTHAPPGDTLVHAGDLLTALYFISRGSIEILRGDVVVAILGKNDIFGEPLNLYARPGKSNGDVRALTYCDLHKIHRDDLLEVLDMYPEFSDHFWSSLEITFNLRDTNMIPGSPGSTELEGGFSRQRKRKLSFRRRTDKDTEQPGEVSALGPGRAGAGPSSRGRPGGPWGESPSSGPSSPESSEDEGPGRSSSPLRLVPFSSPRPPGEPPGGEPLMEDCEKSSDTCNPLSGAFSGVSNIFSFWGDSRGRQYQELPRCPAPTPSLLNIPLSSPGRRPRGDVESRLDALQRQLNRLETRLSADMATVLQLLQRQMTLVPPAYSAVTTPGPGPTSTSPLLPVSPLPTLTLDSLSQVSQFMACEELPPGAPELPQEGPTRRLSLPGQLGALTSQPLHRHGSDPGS

CYP3A4 mRNA = test: CYP induction potential in human hepatocytes; format: in vitro ADME
CYP2C8 = target: T2, CYP2C8 (Homo sapiens, UniProt P10632); test: CYP inhibition assay; settings: at 20 μM
T2 sequence (P10632 1-490): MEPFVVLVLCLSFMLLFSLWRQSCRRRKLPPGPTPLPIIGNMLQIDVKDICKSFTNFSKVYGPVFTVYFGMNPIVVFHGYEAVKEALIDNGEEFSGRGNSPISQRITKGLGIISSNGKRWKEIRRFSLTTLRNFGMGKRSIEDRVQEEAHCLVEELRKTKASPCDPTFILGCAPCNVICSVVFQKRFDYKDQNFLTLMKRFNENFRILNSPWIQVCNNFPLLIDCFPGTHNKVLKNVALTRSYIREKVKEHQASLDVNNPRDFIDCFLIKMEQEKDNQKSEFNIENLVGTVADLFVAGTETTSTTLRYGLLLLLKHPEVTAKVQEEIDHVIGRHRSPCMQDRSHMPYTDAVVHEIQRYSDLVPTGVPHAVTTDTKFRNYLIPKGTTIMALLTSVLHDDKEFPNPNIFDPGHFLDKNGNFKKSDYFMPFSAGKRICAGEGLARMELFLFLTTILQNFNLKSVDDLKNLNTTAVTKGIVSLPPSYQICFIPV

PDE10A = test: PDE selectivity profiling; format: biochemical, human
rat PDE9A = target: T3, rat PDE9A (Rattus norvegicus, UniProt Q8QZV1); test: PDE9A scintillation proximity assay, rat enzyme; format: biochemical
T3 sequence (Q8QZV1 1-534): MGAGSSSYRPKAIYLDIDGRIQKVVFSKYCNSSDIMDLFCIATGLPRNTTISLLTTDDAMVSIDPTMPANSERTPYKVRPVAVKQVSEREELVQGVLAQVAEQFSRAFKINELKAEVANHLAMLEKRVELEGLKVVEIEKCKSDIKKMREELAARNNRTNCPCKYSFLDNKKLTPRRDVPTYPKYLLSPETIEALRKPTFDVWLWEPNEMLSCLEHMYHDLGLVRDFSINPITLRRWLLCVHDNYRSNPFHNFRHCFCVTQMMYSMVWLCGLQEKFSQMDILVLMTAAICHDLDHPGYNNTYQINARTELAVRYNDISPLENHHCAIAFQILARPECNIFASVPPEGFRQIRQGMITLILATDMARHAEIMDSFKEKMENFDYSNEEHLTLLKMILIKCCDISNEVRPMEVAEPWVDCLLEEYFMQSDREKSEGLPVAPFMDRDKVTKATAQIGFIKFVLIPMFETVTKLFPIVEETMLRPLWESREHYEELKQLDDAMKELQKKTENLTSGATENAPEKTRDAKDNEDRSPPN

urinary cGMP = test: Urinary cGMP assay in rats; format: in vivo, rat; settings: 40 mg/kg
CYP3A4 = CYP3A4 (Homo sapiens, UniProt P08684); test: CYP inhibition assay; settings: at 20 μM
Chain of CYP3A4 (P08684 whole entry): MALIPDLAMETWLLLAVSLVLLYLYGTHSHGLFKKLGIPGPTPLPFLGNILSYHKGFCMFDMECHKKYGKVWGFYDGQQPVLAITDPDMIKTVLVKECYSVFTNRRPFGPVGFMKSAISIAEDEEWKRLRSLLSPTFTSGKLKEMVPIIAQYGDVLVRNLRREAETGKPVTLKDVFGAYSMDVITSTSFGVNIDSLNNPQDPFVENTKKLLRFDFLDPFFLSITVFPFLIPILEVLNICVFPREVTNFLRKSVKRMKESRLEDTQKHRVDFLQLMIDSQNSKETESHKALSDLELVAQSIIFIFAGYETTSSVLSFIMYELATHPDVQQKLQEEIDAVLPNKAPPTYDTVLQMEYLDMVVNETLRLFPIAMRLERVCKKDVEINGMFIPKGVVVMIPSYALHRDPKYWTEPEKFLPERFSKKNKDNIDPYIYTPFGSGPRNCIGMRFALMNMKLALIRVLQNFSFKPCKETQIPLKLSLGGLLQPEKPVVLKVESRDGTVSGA

[4] = Metabolite identification assay, hepatocyte incubation; format: in vitro ADME, human
75 off-targets (Panlabs) = test: Panlabs off-target profile
Pharmacokinetics in dogs = format: in vivo; settings: dog, blood, iv, 0.3 mg/kg
[5] = Metabolite identification assay, hepatocyte incubation; format: in vitro ADME, rat
Nav1.5 = Nav1.5 (Homo sapiens, UniProt Q14524); test: Cardiac ion channel inhibition
Chain of Nav1.5 (Q14524 whole entry): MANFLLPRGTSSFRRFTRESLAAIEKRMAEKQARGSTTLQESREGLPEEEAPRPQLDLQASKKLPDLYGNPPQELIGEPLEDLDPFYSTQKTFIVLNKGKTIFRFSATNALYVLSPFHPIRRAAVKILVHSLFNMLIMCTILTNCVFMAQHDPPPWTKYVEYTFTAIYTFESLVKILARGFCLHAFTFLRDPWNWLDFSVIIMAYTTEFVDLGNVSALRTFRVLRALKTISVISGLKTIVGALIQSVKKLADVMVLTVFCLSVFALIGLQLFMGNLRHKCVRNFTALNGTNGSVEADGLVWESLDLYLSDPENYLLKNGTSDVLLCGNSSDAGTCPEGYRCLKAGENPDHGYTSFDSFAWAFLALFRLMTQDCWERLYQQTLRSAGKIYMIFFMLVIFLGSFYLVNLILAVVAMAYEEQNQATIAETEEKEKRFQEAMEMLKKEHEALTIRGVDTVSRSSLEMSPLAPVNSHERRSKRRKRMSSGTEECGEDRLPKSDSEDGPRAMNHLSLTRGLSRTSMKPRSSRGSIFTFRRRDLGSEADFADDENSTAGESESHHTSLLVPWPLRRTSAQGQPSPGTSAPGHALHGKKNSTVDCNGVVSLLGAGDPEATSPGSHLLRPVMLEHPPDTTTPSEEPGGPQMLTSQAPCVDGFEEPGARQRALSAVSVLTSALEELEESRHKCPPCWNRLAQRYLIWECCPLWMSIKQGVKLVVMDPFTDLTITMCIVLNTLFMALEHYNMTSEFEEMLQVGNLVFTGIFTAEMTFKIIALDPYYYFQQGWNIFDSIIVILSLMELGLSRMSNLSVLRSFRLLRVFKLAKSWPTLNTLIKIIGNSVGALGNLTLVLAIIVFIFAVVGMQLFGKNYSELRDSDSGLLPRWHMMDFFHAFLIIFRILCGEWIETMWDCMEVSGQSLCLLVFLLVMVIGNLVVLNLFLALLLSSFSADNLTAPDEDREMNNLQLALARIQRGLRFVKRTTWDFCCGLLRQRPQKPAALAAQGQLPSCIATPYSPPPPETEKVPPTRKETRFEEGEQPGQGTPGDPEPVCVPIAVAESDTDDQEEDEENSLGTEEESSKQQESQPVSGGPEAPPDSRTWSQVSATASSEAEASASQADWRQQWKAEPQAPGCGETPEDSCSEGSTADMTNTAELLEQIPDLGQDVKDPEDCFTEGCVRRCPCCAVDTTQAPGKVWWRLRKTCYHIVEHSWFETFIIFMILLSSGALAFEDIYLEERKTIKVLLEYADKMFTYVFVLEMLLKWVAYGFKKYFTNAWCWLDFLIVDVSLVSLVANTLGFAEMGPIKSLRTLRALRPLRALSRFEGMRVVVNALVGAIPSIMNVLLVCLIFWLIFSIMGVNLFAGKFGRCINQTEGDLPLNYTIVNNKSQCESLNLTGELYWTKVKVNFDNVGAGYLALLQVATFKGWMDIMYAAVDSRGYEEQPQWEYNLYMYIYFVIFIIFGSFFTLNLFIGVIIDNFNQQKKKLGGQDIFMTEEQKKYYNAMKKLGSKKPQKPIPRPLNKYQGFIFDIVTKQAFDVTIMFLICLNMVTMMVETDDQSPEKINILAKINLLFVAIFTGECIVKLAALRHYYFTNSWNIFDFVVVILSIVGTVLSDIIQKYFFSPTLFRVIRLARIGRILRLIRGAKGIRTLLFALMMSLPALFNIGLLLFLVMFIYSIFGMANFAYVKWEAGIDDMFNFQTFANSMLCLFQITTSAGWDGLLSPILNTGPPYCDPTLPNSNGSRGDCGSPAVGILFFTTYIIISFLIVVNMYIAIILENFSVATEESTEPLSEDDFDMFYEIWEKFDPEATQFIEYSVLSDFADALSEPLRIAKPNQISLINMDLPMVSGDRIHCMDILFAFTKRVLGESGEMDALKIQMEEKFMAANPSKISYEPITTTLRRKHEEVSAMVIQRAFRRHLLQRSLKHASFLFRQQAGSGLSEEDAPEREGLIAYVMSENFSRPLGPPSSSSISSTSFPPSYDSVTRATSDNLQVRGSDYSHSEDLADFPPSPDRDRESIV

PDE7B = test: PDE selectivity profiling; format: biochemical, human
mouse PDE9A = target: T4, mouse PDE9A (Mus musculus, UniProt O70628); test: PDE9A scintillation proximity assay, mouse enzyme; format: biochemical
T4 sequence (O70628 1-534): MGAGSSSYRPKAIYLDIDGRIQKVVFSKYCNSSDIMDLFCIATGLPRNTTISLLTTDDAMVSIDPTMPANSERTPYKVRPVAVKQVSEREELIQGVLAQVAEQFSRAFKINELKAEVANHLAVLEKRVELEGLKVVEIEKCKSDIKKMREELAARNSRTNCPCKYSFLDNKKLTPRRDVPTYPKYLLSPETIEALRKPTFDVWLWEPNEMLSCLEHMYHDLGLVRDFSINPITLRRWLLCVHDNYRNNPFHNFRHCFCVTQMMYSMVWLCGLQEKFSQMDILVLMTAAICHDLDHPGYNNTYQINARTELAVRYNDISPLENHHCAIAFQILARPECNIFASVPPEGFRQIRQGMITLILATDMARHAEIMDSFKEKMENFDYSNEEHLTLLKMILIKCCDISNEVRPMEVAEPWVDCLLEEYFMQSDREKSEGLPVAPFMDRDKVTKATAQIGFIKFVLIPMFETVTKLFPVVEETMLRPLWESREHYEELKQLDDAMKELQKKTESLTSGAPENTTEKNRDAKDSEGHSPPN

[6] = Transverse aortic constriction; format: in vivo; settings: mouse TAC
[7] = twice daily oral 10 or 50 mg/kg
[8] = 10 mg/kg twice daily for 5 weeks

Chain of human PDE9A (O76083 whole entry): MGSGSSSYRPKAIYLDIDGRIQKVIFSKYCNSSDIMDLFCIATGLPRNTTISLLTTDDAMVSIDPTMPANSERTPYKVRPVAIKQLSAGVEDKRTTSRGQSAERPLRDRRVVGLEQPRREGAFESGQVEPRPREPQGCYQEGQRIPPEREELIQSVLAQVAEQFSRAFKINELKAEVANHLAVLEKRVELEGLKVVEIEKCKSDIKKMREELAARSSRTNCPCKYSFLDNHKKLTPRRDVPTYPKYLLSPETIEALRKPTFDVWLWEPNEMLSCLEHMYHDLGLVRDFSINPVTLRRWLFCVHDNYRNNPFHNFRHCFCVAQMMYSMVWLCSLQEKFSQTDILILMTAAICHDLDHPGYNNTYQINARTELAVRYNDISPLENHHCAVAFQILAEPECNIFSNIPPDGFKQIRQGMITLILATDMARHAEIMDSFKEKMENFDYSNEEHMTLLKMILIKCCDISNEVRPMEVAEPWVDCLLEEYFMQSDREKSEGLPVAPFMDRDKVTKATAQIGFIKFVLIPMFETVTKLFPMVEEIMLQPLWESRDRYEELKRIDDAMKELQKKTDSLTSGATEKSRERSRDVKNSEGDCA
Chain of CYP2D6 (P10635 whole entry): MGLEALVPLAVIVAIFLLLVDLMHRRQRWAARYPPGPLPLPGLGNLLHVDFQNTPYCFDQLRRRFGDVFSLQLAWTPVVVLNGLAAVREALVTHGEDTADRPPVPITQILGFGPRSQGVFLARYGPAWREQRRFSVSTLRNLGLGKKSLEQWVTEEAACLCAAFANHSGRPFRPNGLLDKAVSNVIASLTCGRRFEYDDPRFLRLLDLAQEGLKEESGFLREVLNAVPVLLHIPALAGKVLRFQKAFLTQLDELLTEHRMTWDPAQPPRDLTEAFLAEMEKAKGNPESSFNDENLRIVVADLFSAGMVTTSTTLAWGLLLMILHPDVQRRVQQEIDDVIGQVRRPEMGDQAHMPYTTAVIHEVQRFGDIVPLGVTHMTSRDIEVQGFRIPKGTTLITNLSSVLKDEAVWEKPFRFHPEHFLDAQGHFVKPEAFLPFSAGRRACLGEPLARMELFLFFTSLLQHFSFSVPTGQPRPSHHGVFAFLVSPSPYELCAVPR

Compound: CCCC1CNCc2c1[nH]c(=O)c(C#N)c2N1CCC2(CC1)CC2.Cl (single isomer, unassigned; ent-4) [Compound 30, ent-4-(6-Azaspiro[2.5]octan-6-yl)-2-oxo-8-propyl-1,2,5,6,7,8-hexahydro-1,6-naphthyridine-3-carbonitrile Hydrochloride]
- inhibition of CYP2D6 (CYP2D6): No inhibition
- BEI binding efficiency index −log (IC50)/MW × 1000 (human PDE9A): 23.9
- effects on blood pressure ([1]; once daily oral 5 or 40 mg/kg): no significant effects
- effects on heart rate ([1]; once daily oral 5 or 40 mg/kg): no significant effects
- CYP1A2 induction (CYP1A2 [2]): no induction
- inhibition of CYP1A2 (CYP1A2 [3]): No inhibition
- genotoxicity in Ames test (Ames test): No genotoxicity
- PDE2A selectivity factor (PDE#-IC50/PDE9A-IC50) (PDE2A): >650x
- PDE3B selectivity factor (PDE#-IC50/PDE9A-IC50) (PDE3B): >650x
- inhibition of cardiac ion channel hERG (hERG): clean profile
- concentrations at which CYP3A4 mRNA was induced (CYP3A4 mRNA): above 9.2 μM
- inhibition of CYP2C8 (CYP2C8): No inhibition
- PDE10A selectivity factor (PDE#-IC50/PDE9A-IC50) (PDE10A): >650x
- IC50 (rat PDE9A): 42 nM
- urinary cGMP versus vehicle (urinary cGMP): nonsignificant trend toward higher cGMP levels
- inhibition of CYP3A4 (CYP3A4): No inhibition
- reactive metabolites after incubation with human hepatocytes [4]: no reactive metabolites were formed
- degradation in the presence of human hepatocytes ([4]; after 4 h of incubation): almost no degradation
- inhibition of 75 off-targets (Panlabs) (75 off-targets (Panlabs)): clean profile
- clearance (Pharmacokinetics in dogs): 15 mL/min/kg
- reactive metabolites after incubation with rat hepatocytes [5]: no reactive metabolites were formed
- inhibition of cardiac ion channel Nav1.5 (Nav1.5): clean profile
- PDE7B selectivity factor (PDE#-IC50/PDE9A-IC50) (PDE7B): >650x
- IC50 (mouse PDE9A): 34 nM

Compound: C[C@@H]1CN(Cc2ncccn2)C[C@H]1c1nc2c(cnn2C2CCOCC2)c(=O)[nH]1 [PF-04447943, 6-[(3S,4S)-4-Methyl-1-(pyrimidin-2-ylmethyl)pyrrolidin-3-yl]-1-(tetrahydro-2H-pyran-4-yl)-1,5-dihydro-4H-pyrazolo[3,4-d]pyrimidin-4-one, reference compound]
- effects on blood pressure [1, 7]: no significant effects
- effects on heart rate [1, 7]: no significant effects
- minimal diastolic left ventricular pressure (LVPmin) ([6]; 10 mg/kg bid for five weeks, 10 mg/kg): reduction
- heart function (LVEDP, Tau) [6, 8]: trend for improvement
- hypertrophy of the left atrium [6, 8]: statistically significant reduction
- clearance (Pharmacokinetics in dogs): 8.33 mL/min/kg
